Data on one compound can be found in patent publication US20030215517A1, “Process for production of crystals of an adjuvant substance, crystals obtained thereby and pharmaceutical preparations containing them” (priority 2002, published 2003).

Common to all, as to format: physicochemical
Series [1] in a line: Particle size distribution of spray-dried microcrystals (Example 2). As to conditions: Example 2, microcrystals spray-dried from ethanol suspension. Here is the method: (§1) Subsequently the suspension obtained in example 1 is filtered by means of a frit and washed with 100 ml of ethanol. The filter cake is suspended in 300 ml ethanol. The suspension is spray-dried under the following conditions in a laboratory spray-drier with two nozzles (2 mm) (QVF/Yamato):
(§2) Microcrystals are obtained in a separating filter of the spray-drier with the following particle size distribution: […]

Series [2] can be described thus: Particle size development during crystallization with wet milling and temperature cycles (Example 1). On the procedure: In a sulfonation flask with a blade mixer and a heating/cooling bath 30 g of lactose monohydrate are dissolved in 100 g of water at 62° C. A rotor-stator dispersing apparatus (Ultra Turrax, T25 basic, with S25N-25F) is operated with a rotation speed of 12000 to 22000 rpm to prepare the solution. Then 300 g of ethanol are added. After 1 to 2 minutes crystallization begins at 25 to 35° C. The Ultra Turrax is operated for an additional 10 minutes and then is shut off.
The starting suspension obtained is heated at 50° C. and subsequently cooled within an interval of 1 hour at 20° C. This procedure is repeated still twice more.

The nature of series [3]: Moisture content of spray-dried microcrystals (Example 2). As to conditions: Example 2, microcrystals spray-dried from ethanol suspension. Here is the method: as §1, §2
The nature of series [4]: Particle size distribution before and after drying (Sympatec HELOS, dry dispersion RODOS). On the procedure:
The particle size distribution in Table I was measured with a Sympatec HELOS (H0445), dry dispersion system (RODOS), pressure 2 bar.

Setting [5] is: Example 1, 1st Cycle (heated at 50° C., cooled to 20° C. within 1 hour).
[6] abbreviates: Suspension, 7 percent by weight lactose monohydrate in EtOH/water 75/25 (w/w), before drying.

Each structure is given as a SMILES string. Marks after values point to notes of the source that are not given here.

As to `O.OC[C@H]1O[C@@H](O[C@H]2[C@H](O)[C@@H](O)C(O)O[C@@H]2CO)[C@H](O)[C@@H](O)[C@H]1O` (stereo partly drawn) [lactose monohydrate], in series [1], the “Particle size X10” value is on record as 2.5 μm, the “Particle size X50” value was 5.9 μm and the “Particle size X100” value is recorded as 43 μm. In series [2] (setting [5]), this compound yielded an X50 of 5 μm and an X100 of 43 μm. In addition, in series [2] (Example 1, 2nd Cycle), the X50 was 5.5 μm and the X100 came out at 43 μm. Besides, in series [2] (Example 1, 3rd Cycle), the X50 worked out at 6 μm and the X100 came out at 43 μm. In series [2] (Example 1, Starting Suspension), this compound came in with an X50 of 3 μm and an X100 of 30 μm. Further, in series [3], the Moisture content is recorded as 4.5%. In series [4] (After spray-drying, dry powder), this compound showed an X10 particle diameter of 2.25 μm, an X50 particle diameter of 6.0 μm and an X100 particle diameter of 43 μm. In addition, in series [4] (setting [6]), the X10 particle diameter is listed as 2.11*** μm, the X50 particle diameter was 5.9 μm and the X100 particle diameter is 43 μm.
